Reference: US20150374709A1, “TETRA-SUBSTITUTED NDGA DERIVATIVES VIA ETHER BONDS AND CARBAMATE BONDS AND THEIR SYNTHESIS AND PHARMACEUTICAL USE” (ERIMOS PHARMACEUTICALS LLC, priority 2006, published 2015)
pIC50: −log10 of the molar value. Values joined by “and” are separate entries in the source; they are usually repeats but may differ in a detail not shown here. Identical values can stand only once. Counter-ions that a name gives are not always drawn. Like-named read-outs stand apart in the source and are kept apart here. Each block holds one compound with its values, some of them ahead of it.

Columns and labels:
[1] = tested on: VEGF; assay: ELISA VEGF assay (DFO-treated cells); type: cell-based, Human
Description: ELISA (Enzyme-Linked ImmunoSorbent Assay) VEGF studies were done following manufacturer's instructions using the Endogen® Human VEGF ELISA kit, Catalog No. […] (Pierce Biotechnology, Inc., Rockford, Ill. USA). Hypoxic conditions are created for the cells by treating them with desferrioxamine (DFO), which chelates iron and causes the cells to secrete VEGF into the media. The supernatant (media) was removed and frozen for testing, and the cells were counted with the Trypan Blue assay so that the results can be normalized to cell count. The VEGF is measured with a sandwich ELISA that captures the protein in media on an antibody-coated microplate, and then uses a biotinylated antibody reagent to detect the protein. Results from a standard curve enable the user to quantify the amount of protein in each sample.

[2] = tested on: HeLa (cervical adenocarcinoma); assay: MTS cell viability assay, HeLa; type: cell-based; conditions: Homo sapiens, HeLa, read-out: HeLa IC50
Description: (§1) Studies performed regarding cytotoxicity included the well-known MTS, Trypan Blue and MTT protocols. The MTS studies were done using the CellTiter 96®AQueous One Solution Cell Proliferation Assay (Promega Corporation, Madison, Wis. USA). Metabolically active, namely viable, cells turn MTS, a tetrazolium compound (3-(4,5-dimethylthiazol-2-yl)-5-(3-carboxymethoxyphenyl)-2-(4-sulfophenyl)-2H-tetrazolium, inner salt) into colored formazan, which is soluble in tissue culture medium. The measurement of the absorbance of the formazan is read at 490 nm. The ready to use reagent is added directly to the cells in media in 96-well plates, incubated 1-4 hours and the results are recorded by the plate reader. The IC50 is estimated by graphing the gathered data. The IC50 is the concentration of the tested material that inhibits 50% of growth or viability of the tested material compared to a control.
(§2) Three cell lines obtained from ATCC and maintained as directed by ATCC were tested: HeLa (cervical adenocarcinoma), A549 (lung carcinoma), and COS-7 (SV40 transformed monkey kidney). Studies of these cell lines are considered to be indicative of the effect of tested substances on mammalian, including human, diseases.
(§3) All compounds were dissolved in DMSO and DMSO is used as the placebo. The samples were first dissolved into 10 mM dilutions in DMSO and then diluted further to 5, 1, 0.5, 0.1, 0.05, and 0.01 mM solutions. These solutions were added to the media at a 1% concentration (1 μl to 100 μl media) to treat the cells with 100, 50, 10, 5, 1, 0.5, and 0.1 μM of the compound. […] Solutions were checked before use for precipitation, especially the 10 mM solutions. If there was precipitation, they were warmed 65° C. and added to warmed media.
(§4) Wells on a 96-well plate were seeded with 1.5-8×10^4 cells in 100 μl media and incubated overnight. The outside wells of the plate were filled with 200 μl sterile, deionized (DI) water to curb media evaporation. After 24 hours, test chemicals were prepared in media at a concentration of 1% media volume. The test sample media were added, mixing with pipette before adding 100 μl per well. Media was added to the “Media Only” wells. The well plate and its contents were incubated for 24-72 hours, depending on the study conducted. On the thy of the MTS assay, the MTS reagent was removed from the refrigerator and brought to room temperature. Using the multichannel pipette, 20 μl of the MTS reagent was added to each well and incubated for one to four hours. The plate was read at 490 nm with a reference wavelength of 690 nm after one hour in the incubator thereafter until the blank wells were at about 0.2 OD. The results were then scanned into a Microsoft® Excel® template designed to perform all necessary calculations whim data are entered. The data were checked for statistical errors; data points that are within 10% of the mean of the data points for that group were included. The average of the blanks (“Media Only”) were subtracted and the data were inserted into a chart that represents growth response, treated/untreated.

[3] = tested on: A549 (lung carcinoma); assay: MTS cell viability assay, A549; type: cell-based; conditions: Homo sapiens
Description: as §1, §2, §3, §4

[4] = tested on: apoptosis of cells based on DNA fragmentation; assay: TiterTACS DNA fragmentation apoptosis assay; type: cell-based; conditions: TiterTACS apoptosis detection
Experimental: Antiproliferative activity is determined using the TiterTACS® Apoptosis Detection Kit (R&D Systems Inc., Minneapolis, Minn. USA) relating to apoptosis of cells based on DNA fragmentation, and by the ELISA VEGF ([…]) and survivin assays.
In the DNA fragmentation assay, in situ detection of apoptosis is specifically achieved with TiterTACS® 96-well Apoptosis Detection kit, Catalog No. TA600 (R&D Systems, Inc.). The TiterTACS® assay provides quantification of apoptosis in cultured cells without direct counting of labeled cells using colorimetric detection. Cells are treated with the test compounds, left untreated as experimental negative controls, or treated with TACS nuclease as positive controls. TACS nuclease allows positive controls to be generated for each experimental system: a brief treatment of cells with the TACS nuclease prior to labeling generates DNA breaks in every cell, providing an appropriate positive control specific for the system under study. The TdT enzyme that catalyzes the addition of dNTPs to DNA fragments allows for colorimetric detection of at 450 nm by using a streptavidin-HRP solution followed by the TACS-Sapphire substrate. A high absorbance at 450 nm is indicative of apoptosis in the cells. Treated cells are compared to untreated cells and to nuclease-cleaved cells to assess the extent of apoptosis.

[5] = tested on: survivin; assay: ELISA survivin assay (cell lysates); type: cell-based, Human
Description: Survivin is an inhibitor of apoptosis that is abundantly expressed in many human cancers, but not in normal adult human tissue, and is considered a possible modulator of the terminal effector phase of cell death/survival. Survivin is expressed in G2-M in a cell cycle-dependent manner, binding directly to mitotic spindle microtubules. […] Phosphorylated survivin acts on the caspase pathway to suppress the formation of caspase-3 and caspase-9, thereby inhibiting apoptosis. Thus, compounds that reduce the expression of survivin will be expected to increase the rate of apoptosis and cell death.
Effects of the tested compounds on survivin were studied following manufacturer's instructions using the Surveyor™ IC Human Total Survivin Immunoassay, Catalog No. SUV647 (R&D Systems, Inc.). Cell lysates were analyzed for survivin protein content. The kit includes a plate coated with an antibody specific for survivin and a biotinylated antibody reagent that recognizes survivin bound to the plate. The plate is read on a plate reader set at 450 nm and corrected at 540 nm. A protein assay according to the Bradford method (Bradford, M. 1976, Anal Biochem 72: 248-254) was used to quantify and normalize the samples according to total protein content. Results from a standard curve enable the user to quantify the amount of survivin protein in each sample.

[6] = tested on: Caco-2 cell monolayers; assay: Caco-2 monolayer bidirectional permeability; type: in vitro ADME, human
Experimental: (§5) Permeability studies were conducted by an outside contractor on behalf of the assignee of the present invention and application to determine the permeability of Compound A through Caco-2 monolayers. An important factor of oral bioavailability is the ability of e compound to be absorbed in the small intestine. Measurement of drug apparent permeability (Papp) through cell monolayers is well correlated with human intestinal absorption, and several mammalian cell lines, including Caco-2, LLC-PK1 and MDCK, are appropriate for this measurement (Artursson, P. et al., Correlation between oral drug absorption in humans and apparent drug permeability coefficients in human intestinal epithelial (Caco-2) cells. Biochem Biophys Res Comm 175:880-885 (1991); Stewart. B. H., et al., Comparison of intestinal permeabilities in multiple in vitro and in situ models: relationship to absorption in humans. Pharm Res 12:693 (1995)). P-Glycoprotein (P-gp, encoded by MDR1) is a member of the ABC transporter super family and is expressed in the human intestine, liver and other tissues. Intestinal expression of P-gp may affect the oral bioavailability of drug molecules that are substrates for this transporter. Interaction with P-gp can be studied using direct assays of drug transport in polarized cell systems such as Caco-2 cell monolayers, and human P-gp cDNA-expressing LLC-PK1 and MDCK cell monolayers. Caco-2 cells (human adenocarcinoma colonic cell line Caco-2, ATCC Cat. No. […] The cells were cultured for 21-25 days with media replacement every 3-4 days. Monolayer integrity was evaluated by pre-experimental trans-epithelial electrical resistance (TEER) measurements and post-experimental lucifer yellow A to B flux determinations. […] Receiver solution was prepared by adding 1% DMSO to transport buffer. The test solution was of Compound A in DMSO in transport buffer at a final DMSO concentration of 1%. […] The donor and receiver solutions were added to the apical or basolateral chambers of the monolayers (depending on the direction of transport to be measured). The monolayers were incubated on an orbital shaker (50 rpm) at 37° C., with ambient humidity and CO2. After 90 minutes, samples from the donor and receiver chambers were removed for analysis. […] Duplicate monolayers were used for each incubation. Samples were analyzed by LC/MS/MS using peak area ratios to an internal standard. Test article concentrations were calculated based on the peak area ratios obtained for appropriate dilutions of the donor solution containing the test article at the nominal concentration in transport buffer. Samples were diluted as appropriate to ensure that the response was within the linear range of the mass spec detector. Comparator and control samples were analyzed by liquid scintillation counting. Lucifer yellow concentrations were determined using a fluorescence plate reader.

[7] = Caco-2 monolayer bidirectional permeability; type: in vitro ADME, human; conditions: human, Caco-2, pH 7.4; control at 5 μM, 90 minutes, duplicate monolayers
Experimental: as §5

[8] = read-out: Survivin IC50; survivin protein in cell lysates, normalized to total protein
[9] = VEGF released into media by DFO-treated cells, normalized to cell count; read-out: VEGF IC50
[10] = A549, MTS assay, read-out: A549 IC50
[11] = survivin protein in cell lysates, normalized to total protein; read-out: Survivin IC50

Structure (SMILES): C[C@H](Cc1ccc(OCCCCN2CCN(C)CC2)c(OCCCCN2CCN(C)CC2)c1)[C@@H](C)Cc1ccc(OCCCCN2CCN(C)CC2)c(OCCCCN2CCN(C)CC2)c1 [Compound O, 1,4-bis{3,4-bis[4-(N-methyl-piperazino-N′-yl)butoxyl]phenyl}-2,3-dimethyl-(2R,3S)-butane octa-hydrochloride]
pIC50 ([1]; read-out: VEGF IC50; VEGF released into media by DFO-treated cells, normalized to cell count): 4.74 | pIC50 [2]: 4.52 to 5.00 | pIC50 ([3]; A549, read-out: A549 IC50): 5.05 to 5.10 | DNA fragmentation [4]: Positive | pIC50 [5, 8]: 4.85

Structure (SMILES): C[C@H](Cc1ccc(OCCN(C)C)c(OCCN(C)C)c1)[C@@H](C)Cc1ccc(OCCN(C)C)c(OCCN(C)C)c1 [Compound H, 1,4-bis{3,4-bis(2-(N,N′-dimethylamino)-ethoxy)phenyl}-2,3-dimethyl-(2R,3S)-butane tetrakishydrochloride salt]
pIC50 ([1]; read-out: VEGF IC50; VEGF released into media by DFO-treated cells, normalized to cell count; listed as H in H2O): 4.64 | DNA fragmentation [4]: Positive | pIC50 [5, 8]: 5.00

Structure (SMILES): C[C@H]1O[C@@H](O[C@H]2[C@@H](O)C[C@H](O[C@H]3[C@@H](O)C[C@H](O[C@H]4CC[C@@]5(C)[C@H](CC[C@@H]6[C@@H]5C[C@@H](O)[C@]5(C)[C@@H](C7=CC(=O)OC7)CC[C@]65O)C4)O[C@@H]3C)O[C@@H]2C)C[C@H](O)[C@@H]1O [digoxin, reference compound]
Papp mean A to B ([6]; comparators/control at the concentration in the row (5 or 50 μM), 90 minutes, duplicate monolayers): 2.28 ×10⁻⁶ cm/s | Mass balance mean A to B ([6]; comparators/control, 90 minutes): 73% | Mass balance mean B to A ([6]; control, 90 minutes): 79% | Papp B→A at 90 min [7]: 12.4 ×10⁻⁶ cm/s

Structure (SMILES): C[C@H](Cc1ccc(OCCCCN2CCCCC2)c(OCCCCN2CCCCC2)c1)[C@@H](C)Cc1ccc(OCCCCN2CCCCC2)c(OCCCCN2CCCCC2)c1 [Compound D, 1,4-bis{3,4-bis[4-(N-piperidino)butoxyl]phenyl}-2,3-dimethyl-(2R,3S)-butane tetrakis-hydrochloride salt]
pIC50 [1, 9]: ~5.05 and 5.05 | pIC50 ([2]; MTS assay): 5.00 to 5.30 | pIC50 [3, 10]: 5.30 to 6.00 | DNA fragmentation [4]: Positive | pIC50 [5, 11]: ~5.40 and 5.40

Mass balance mean A to B ([6]; human, Caco-2, 90 min, pH 7.4): 71%
Structure (SMILES): CC(C)NCC(O)COc1cccc2ccccc12 (centres unmarked) [propranolol, reference compound]

Structure (SMILES): C[C@H](Cc1ccc(OCCCCN2CCOCC2)c(OCCCCN2CCOCC2)c1)[C@@H](C)Cc1ccc(OCCCCN2CCOCC2)c(OCCCCN2CCOCC2)c1 [Compound M, 1,4-bis{3,4-bis[4-(N-morpholino)butoxyl]phenyl}-2,3-dimethyl-(2R,3S)-butane]
pIC50 [1, 9]: ~5.05 and 5.05 | pIC50 ([2]; MTS assay): 5.00 to 5.30 | pIC50 [3, 10]: 5.30 to 6.00 | DNA fragmentation [4]: Positive | pIC50 [5, 11]: 5.30

Structure (SMILES): C[C@H](Cc1ccc(OCCN(C)C)c(OCCN(C)C)c1)[C@@H](C)Cc1ccc(OCCN(C)C)c(OCCN(C)C)c1 [Compound G, 1,4-bis{3,4-bis(2-(N,N′-dimethylamino)-ethoxy)phenyl}-2,3-dimethyl-(2R,3S)-butane]
pIC50 ([1]; read-out: VEGF IC50; VEGF released into media by DFO-treated cells, normalized to cell count; listed as G in H2O): 4.60 | pIC50 [2]: 4.70 to 4.82 | pIC50 ([3]; A549, read-out: A549 IC50): 4.70 to 4.82

Mass balance mean A to B ([6]; human, Caco-2, 90 min, pH 7.4): 96%
Structure (SMILES): OC[C@@H](O)[C@@H](O)[C@H](O)[C@H](O)CO [mannitol, reference compound]

pIC50 ([2]; MTS assay): < 4.00 | pIC50 [3, 10]: < 4.00
Structure (SMILES): C[C@H](Cc1ccc(OCCF)c(OCCF)c1)[C@@H](C)Cc1ccc(OCCF)c(OCCF)c1 [Compound K, 1,4-bis[3,4-bis(2-fluoro-ethoxyl)phenyl]-2,3-dimethyl-(2R,3S)-butane]
